In ChEMBL document CHEMBL3885861, “Open TG-GATES”:

Species: Rattus norvegicus
Assay: Open TG-GATES - Regimen: Single
Assay type: toxicity, organism-based, Sprague-Dawley
Design: regimen Single, gender Male, age 6 weeks
Settings: in vivo, ip, route intraperitoneal injection; for KIDNEY_L / KIDNEY_R / KIDNEY_TOTAL: tissue Kidney; for LIVER: tissue Liver
[1] = 0 mg/kg, 3 h, dose 0 ug/Kg, dose level Control
[2] = 0 mg/kg, 3 h, tissue Blood, dose 0 ug/Kg, dose level Control
[3] = 0 mg/kg, 3 h, tissue Plasma, dose 0 ug/Kg, dose level Control
[4] = 0 mg/kg, 6 h, dose 0 ug/Kg, dose level Control
[5] = 0 mg/kg, 6 h, tissue Blood, dose 0 ug/Kg, dose level Control
[6] = 0 mg/kg, 6 h, tissue Plasma, dose 0 ug/Kg, dose level Control
[7] = 0 mg/kg, 9 h, dose 0 ug/Kg, dose level Control
[8] = 0 mg/kg, 9 h, tissue Blood, dose 0 ug/Kg, dose level Control
[9] = 0 mg/kg, 9 h, tissue Plasma, dose 0 ug/Kg, dose level Control
[10] = 0 mg/kg, 24 h, dose 0 ug/Kg, dose level Control
[11] = 0 mg/kg, 24 h, tissue Blood, dose 0 ug/Kg, dose level Control
[12] = 0 mg/kg, 24 h, tissue Plasma, dose 0 ug/Kg, dose level Control

LPS
TERMINAL_BW [1]: 194.6 g | Bas [2]: 0.3% | Eos [2]: 0.7% | Ht [2]: 40.7% | Lym [2]: 72% | MCHC [2]: 32.8% | MCV [2]: 63.3 fL | Mono [2]: 4% | Neu [2]: 21.3% | PT [2]: 15.7 s | Plat [2]: 123.5 x10_4/uL | RBC [2]: 644.3 x10_4/ul | Ret [2]: 9.4% | WBC [2]: 91.5 x10_2/uL | KIDNEY_L [1]: 0.9 g | KIDNEY_R [1]: 0.9 g | KIDNEY_TOTAL [1]: 1.8 g | LIVER [1]: 8.6 g | ALP [3]: 1094.7 IU/L | ALT [3]: 41.7 IU/L | AST [3]: 78.3 IU/L | BUN [3]: 8.7 mg/dL | CRE [3]: 0.2 mg/dL | DBIL [3]: 0.01 mg/dL | IP [3]: 9.2 mg/dL | K [3]: 4 meq/L | LDH [3]: 110 IU/L | PL [3]: 136.3 mg/dL | RALB [3]: 2.5 g/dL | TBIL [3]: 0.0467 mg/dL | TC [3]: 76 mg/dL | TG [3]: 41.3 mg/dL | TP [3]: 5.3 g/dL | gamma-GTP [3]: 1 IU/L | TERMINAL_BW [4]: 195.4 g | APTT [5]: 18.1 s | Bas [5]: 0% | Eos [5]: 0.3% | Fbg [5]: 298.7 mg/dL | Hb [5]: 12.9 g/dL | Ht [5]: 39.5% | Lym [5]: 71.3% | MCHC [5]: 32.6% | MCV [5]: 65.8 fL | Mono [5]: 2.3% | Neu [5]: 25% | PT [5]: 15.7 s | Plat [5]: 114.9 x10_4/uL | RBC [5]: 601.3 x10_4/ul | Ret [5]: 9.6% | WBC [5]: 101.7 x10_2/uL | KIDNEY_L [4]: 0.9 g | KIDNEY_R [4]: 0.9 g | KIDNEY_TOTAL [4]: 1.7 g | LIVER [4]: 7.9 g | ALP [6]: 1269.3 IU/L | ALT [6]: 37.7 IU/L | AST [6]: 75.7 IU/L | BUN [6]: 7.3 mg/dL | CRE [6]: 0.2 mg/dL | DBIL [6]: 0.01 mg/dL | GLC [6]: 178.3 mg/dL | IP [6]: 10 mg/dL | K [6]: 3.7 meq/L | LDH [6]: 74 IU/L | PL [6]: 138.7 mg/dL | RALB [6]: 2.5 g/dL | TBIL [6]: 0.0433 mg/dL | TC [6]: 79.3 mg/dL | TG [6]: 24.7 mg/dL | TP [6]: 5.4 g/dL | gamma-GTP [6]: 1 IU/L | TERMINAL_BW [7]: 191.3 g | APTT [8]: 17.1 s | Bas [8]: 0% | Eos [8]: 1% | Fbg [8]: 304.3 mg/dL | Ht [8]: 38.4% | Lym [8]: 63.3% | MCHC [8]: 32.8% | Mono [8]: 2% | Neu [8]: 33.7% | Plat [8]: 116.1 x10_4/uL | RBC [8]: 624 x10_4/ul | Ret [8]: 8.1% | WBC [8]: 71.4 x10_2/uL | KIDNEY_L [7]: 0.9 g | KIDNEY_R [7]: 0.9 g | KIDNEY_TOTAL [7]: 1.8 g | LIVER [7]: 7 g | ALP [9]: 1080.7 IU/L | ALT [9]: 48 IU/L | AST [9]: 79 IU/L | BUN [9]: 8.3 mg/dL | CRE [9]: 0.2 mg/dL | Ca [9]: 10 mg/dL | DBIL [9]: 0.0033 mg/dL | GLC [9]: 165 mg/dL | IP [9]: 9.5 mg/dL | K [9]: 3.8 meq/L | LDH [9]: 53.7 IU/L | PL [9]: 124.7 mg/dL | RALB [9]: 2.4 g/dL | TBIL [9]: 0.0467 mg/dL | TC [9]: 73.3 mg/dL | TG [9]: 13.3 mg/dL | TP [9]: 5.2 g/dL | gamma-GTP [9]: 1 IU/L | TERMINAL_BW [10]: 209.1 g | Bas [11]: 0.3% | Eos [11]: 1.3% | Fbg [11]: 302.3 mg/dL | Hb [11]: 12.9 g/dL | Ht [11]: 39.4% | Lym [11]: 76.3% | MCH [11]: 21 pg | MCHC [11]: 32.8% | MCV [11]: 64 fL | Mono [11]: 3.7% | Neu [11]: 17.3% | PT [11]: 15.2 s | Plat [11]: 115.4 x10_4/uL | RBC [11]: 616.3 x10_4/ul | Ret [11]: 8.6% | WBC [11]: 115.5 x10_2/uL | KIDNEY_L [10]: 0.9 g | KIDNEY_R [10]: 0.9 g | KIDNEY_TOTAL [10]: 1.8 g | LIVER [10]: 9.7 g | ALP [12]: 1572.7 IU/L | ALT [12]: 48.3 IU/L | AST [12]: 78 IU/L | BUN [12]: 15 mg/dL | CRE [12]: 0.2 mg/dL | DBIL [12]: 0.01 mg/dL | GLC [12]: 170.7 mg/dL | IP [12]: 8.6 mg/dL | K [12]: 4.4 meq/L | LDH [12]: 86.7 IU/L | PL [12]: 171.3 mg/dL | RALB [12]: 2.6 g/dL | TBIL [12]: 0.0533 mg/dL | TC [12]: 98.7 mg/dL | TG [12]: 55.3 mg/dL | TP [12]: 5.7 g/dL | gamma-GTP [12]: 1 IU/L | TERMINAL_BW (0.01 mg/kg, 3 h, dose 10 ug/Kg, dose level Low): 192 g | Bas (0.01 mg/kg, 3 h, tissue Blood, dose 10 ug/Kg, dose level Low): 0%
